This note sets out measurements from patent publication US20250360091A1, “COMBINATION OF SGLT2 INHIBITOR AND MENTHOL AND USE THEREOF IN TREATMENT OF HEART DISEASE” (EAST CHINA UNIVERSITY OF SCIENCE AND TECHNOLOGY, priority 2023, published 2025).

For one experiment, the system named is H9c2 cells. Nature of the experiment: Oil Red O staining of palmitic acid-induced lipid accumulation (Example 6). To be noted: used alone: EMPA 50 or 100 μM, MEN 200 μM; 24 h after 200 μM palmitic acid 48 h. Format: cell-based, Rat. As for the experimental part:
1. Oil Red O staining. H9c2 cells were seeded in 12-well plates (1×10^5 cells per well) and cultured to 80-90% confluence. The cells were incubated with lipid medium containing 200 μM palmitic acid (Sigma-Aldrich, P0500) for 48 h to induce lipid droplet accumulation. The lipid medium was removed, and the cells were cultured for 24 h with medium containing 50 μM EMPA (E50, EMPA-50), 100 μM EMPA (E100), 200 μM MEN (M200), and 50 μM EMPA+200 μM MEN (E50+M200) but without palmitic acid. After the incubation, the cells were stained with Oil Red. The cells were washed 3 times with PBS and fixed with 4% paraformaldehyde at room temperature for 30 min. They were washed again with PBS 3 times and incubated with Oil Red O working solution at room temperature for 30 min. After rinsing with PBS 3 times, the cells were imaged under a microscope. The red area (positive area of lipid accumulation) was measured using Image J software package. The experiment was divided into 6 groups, black group (blank group, not treated with lipid medium and drugs), control group (control group, treated with lipid medium but not treated with drugs), E50 group (treated with lipid medium and then 50 μM EMPA), E100 (treated with lipid medium and then 100 μM EMPA), M200 (treated with lipid medium and then 200 μM menthol), E50+M200 (treated with lipid medium and then 50 μM empagliflozin+200 μM menthol).

Experiment [1] deals with intracellular calcium concentration. Nature of the experiment: Intracellular calcium ion concentration with calcium probe Fluo4-AM (Example 5). Format: cell-based. To be noted: cariporide 100 μM, empagliflozin 50 μM, menthol 200 μM, combination 50 μM + 200 μM. The source says: Intracellular calcium overload is an important factor in the transition of myocardial cells from reversible to irreversible damage. Intracellular calcium overload can be seen in a variety of cardiac pathological states, such as cardiac remodeling, myocardial ischemia-reperfusion injury, viral myocarditis, dilated cardiomyopathy, arrhythmias, and congestive heart failure. […] Empagliflozin can act on the sodium-hydrogen exchanger 1 (NHE1) on the myocardial cell membrane. When myocardial ischemia occurs, myocardial cell energy metabolism is impaired, and myocardial cells switch from fatty acid metabolism to sugar-free glycolysis, producing a large amount of lactic acid, which reduces the intracellular pH. As a regulatory protein for cell pH homeostasis, NHE1 can transport H^+ out of the cell by exchanging extracellular sodium ions, resulting in an increase in the intracellular sodium ion concentration. […] When mitochondrial function is impaired, the release of ROS increases, and ROS can further stimulate L-type calcium channels, promoting Ca^2+ influx, creating a vicious cycle. Empagliflozin inhibits the activity of NHE1 and can indirectly reduce the intracellular calcium ion concentration. Menthol, as an L-type calcium channel blocker, can synergistically reduce the intracellular calcium ion concentration with empagliflozin, playing a synergistic role. In order to verify this synergistic mechanism, the intracellular calcium ion concentration was detected using the calcium ion probe Fluo4-AM.
The experiment was divided into 5 groups, including control group (no drug group), cariporide group (positive control group, 100 μM), EMPA-50 (empagliflozin, 50 μM), M-200 (menthol, 200 μM), and E50+M200 (combination of 50 μM empagliflozin and 200 μM menthol).
• (1) Take an appropriate amount of Fluo4-AM stock solution (2 mM, BeyoTime, S1060) and dilute it to a 10 μM working solution with HBSS; • (2) For the cells to be tested (covering the bottom of the dish), remove the culture medium and wash with HBSS three times; • (3) Add 25 μL of Fluo4-AM working solution to each well, and then add 25 μL of compound solution to each well; • (4) Incubate at 37° C. for 30 min for fluorescent probe loading; • (5) Wash three times with HBSS, and add 100 μL of HBSS containing 10 mM CaCl2) to each well. Detect quantitatively the fluorescence of Fluo4-AM using a multifunctional fluorescence microplate reader (excitation wavelength 488 nm, emission wavelength 520 nm) to determine the changes in intracellular calcium ions.
Since empagliflozin indirectly affects intracellular calcium concentration by inhibiting NHE1, the intracellular environment was made acidic by using ammonium chloride solution to simulate the environment during myocardial ischemia, and the effect of the administered composition on intracellular calcium ions was tested. The NHE1 inhibitor cariporide was used as a positive control. The above step (3) was changed to add 25 μL of Fluo4-AM working solution to each well, mix the test compound with 80 mM NH4Cl solution at a 1:1 ratio, and then add 25 μL mixed solution of the compound and NH4Cl to each well (the final concentration of NH4Cl was 20 mM), and the remaining steps were the same as above.

Setting [2] is: NH4Cl present (20 mM, acidic intracellular conditions).

On to `OC[C@H]1O[C@@H](c2ccc(Cl)c(Cc3ccc(O[C@H]4CCOC4)cc3)c2)[C@H](O)[C@@H](O)[C@@H]1O` [empagliflozin], for which the “lipid accumulation in cardiomyocytes (Oil Red O staining area)” value in the experiment with H9c2 cells is “significantly reduce lipid accumulation”. For the same molecule, the figures for the “effect on intracellular calcium concentration (Fluo4-AM fluorescence)” value in experiment [1] (setting [2]) and in experiment [1] (absence of NH4Cl) were “significantly reduce intracellular calcium concentration” and “almost no effect”, respectively.
For `CC(C)[C@@H]1CC[C@@H](C)C[C@H]1O` [menthol, L-menthol], in that order: “significantly reduce lipid accumulation”, “weak effect of reducing intracellular calcium concentration” and “weak inhibitory effect”.
